Here are results for 22 compounds from PubChem BioAssay AID330 (DTP/NCI, 2004).

Values joined by “and” are separate entries in the source; they are usually repeats but may differ in a detail not shown here. Equal entries are not always repeated. Inconclusive results and toxic doses are left out. Numbered stars: 1 amine (or outer) side, 2 acyl side, 3 side chain; on linkers, the order of the positions; unused ones are H or OH. Bridge positions count the residues as written; N and C are the ends. Square brackets hold non-standard residues; d marks the D form. Peptide text beside a SMILES is read from it. * marks the point of attachment. ξ: configuration not given here. ξOrn(4,5-diOH) = O=C(C(CC(O)C(O)N[*:3])N[*:1])[*:2]; ξhTyr(βξ-OH,γξ-OH) = NC(C(=O)O)C(O)C(O)c1ccc(O)cc1; ξPro(3ξ-OH,4ξ-Me) = CC1CNC(C(=O)O)C1O; X22 = CCCCC/C=C/C/C=C\CCCCCCCC(=O)*; Hyp = O=C(O)[CH]1C[CH](O)CN1

The assay concerns P388 leukemia ip, CD2F1 mice, survival T/C. The assay can be described thus: NCI In Vivo Anticancer Drug Screen. Data for tumor model P388 Leukemia (intraperitoneal) in CD2F1 (CDF1) mice. To be noted: endpoint: median survival time, higher = longer survival. The essentials: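 Mice carrying the transplanted tumor received test compound or vehicle. Survival was recorded in each group, and the value is the treated-group measurement divided by that of the vehicle-treated control group.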

The mark [1] stands for this setting: dose: 50.0 mg/kg/injection, schedule: Q01DX005 (ip), vehicle: Klucel (hydroxypropylcellulose) (HPC).
Where [2] appears, read: dose: 50.0 mg/kg/injection, schedule: Q01DX005 (ip), vehicle: saline with Tween-80.
[3] abbreviates: dose: 200.0 mg/kg/injection, schedule: Q01DX005 (ip), vehicle: saline with Tween-80.
Setting [4] is: dose: 50.0 mg/kg/injection, schedule: Q01DX009 (ip), vehicle: saline.
Setting [5] is: dose: 100.0 mg/kg/injection, schedule: Q01DX009 (ip), vehicle: saline.
[6] abbreviates: dose: 200.0 mg/kg/injection, schedule: Q01DX009 (ip), vehicle: saline.
The mark [7] stands for this setting: dose: 50.0 mg/kg/injection, schedule: Q01DX009 (ip), vehicle: saline with Tween-80.
The mark [8] stands for this setting: dose: 100.0 mg/kg/injection, schedule: Q01DX009 (ip), vehicle: saline with Tween-80.
[9] abbreviates: dose: 200.0 mg/kg/injection, schedule: Q01DX009 (ip), vehicle: saline with Tween-80.
The mark [10] stands for this setting: dose: 60.0 mg/kg/injection, schedule: Q01DX005 (ip), vehicle: saline.
Setting [11] is: dose: 120.0 mg/kg/injection, schedule: Q01DX005 (ip), vehicle: saline.
Where [12] appears, read: dose: 240.0 mg/kg/injection, schedule: Q01DX005 (ip), vehicle: saline.
The mark [13] stands for this setting: dose: 100.0 mg/kg/injection, schedule: Q01DX001 (ip), vehicle: Klucel (hydroxypropylcellulose) (HPC).
The mark [14] stands for this setting: dose: 200.0 mg/kg/injection, schedule: Q01DX001 (ip), vehicle: Klucel (hydroxypropylcellulose) (HPC).
Where [15] appears, read: dose: 400.0 mg/kg/injection, schedule: Q01DX001 (ip), vehicle: Klucel (hydroxypropylcellulose) (HPC).

On to `CCCCC/C=C/C/C=C\CCCCCCCC(=O)NC1CC(O)C(O)NC(=O)C2C(O)C(C)CN2C(=O)C(C(C)O)NC(=O)C(C(O)C(O)c2ccc(O)cc2)NC(=O)C2CC(O)CN2C(=O)C(C(C)O)NC1=O` (stereo not drawn) (X22-[ξOrn(4,5-diOH)]T[Hyp][ξhTyr(βξ-OH,γξ-OH)]T[ξPro(3ξ-OH,4ξ-Me)]; lactam 1-C; configuration not given here), for which the T/C (dose: 0.25 mg/kg/injection, schedule: Q01DX009 (ip), vehicle: lactate) is 100 % of control and the T/C (dose: 0.5 mg/kg/injection, schedule: Q01DX009 (ip), vehicle: lactate) was 104 % of control.
Turning to `Cn1c(=O)c2c(ncn2-c2ccc(N)cn2)n(C)c1=O`, the T/C is 98 % of control (dose: 12.5 mg/kg/injection, schedule: Q01DX005 (ip), vehicle: distilled water + alcohol); 104 % of control (dose: 25.0 mg/kg/injection, schedule: Q01DX005 (ip), vehicle: distilled water + alcohol); 96 % of control under setting [1]; 100 % of control (dose: 50.0 mg/kg/injection, schedule: Q01DX005 (ip), vehicle: distilled water + alcohol).
In the case of `CC(C)(C)OC(=O)NC(Cc1ccc(OCc2c(Cl)cccc2Cl)cc1)C(=O)O` (stereo not given), the T/C by setting is: under setting [2], 104 % of control; (dose: 100.0 mg/kg/injection, schedule: Q01DX005 (ip), vehicle: saline with Tween-80) 100 % of control; under setting [3], 100 % of control.
`CCOC(=O)Cc1cc2c(cc1C)CN=C(OCC)C2`: the T/C was 100 % of control (dose: 6.25 mg/kg/injection, schedule: Q01DX009 (ip), vehicle: distilled water + Tween-80); 103 % of control (dose: 12.5 mg/kg/injection, schedule: Q01DX009 (ip), vehicle: distilled water + Tween-80); 94 % of control (dose: 25.0 mg/kg/injection, schedule: Q01DX009 (ip), vehicle: distilled water + Tween-80); 91 % of control (dose: 50.0 mg/kg/injection, schedule: Q01DX009 (ip), vehicle: distilled water + Tween-80); 91 % of control (dose: 100.0 mg/kg/injection, schedule: Q01DX009 (ip), vehicle: distilled water + Tween-80); 90 % of control (dose: 200.0 mg/kg/injection, schedule: Q01DX009 (ip), vehicle: distilled water + Tween-80). In addition, for the setting “dose: 400.0 mg/kg/injection, schedule: Q01DX009 (ip), vehicle: distilled water + Tween-80”, the T/C was 100 % of control.
Regarding `c1ccc(-c2ncc3n(-c4ccccc4)cnn23)cc1`, the T/C (dose: 100.0 mg/kg/injection, schedule: Q04DX002 (ip), vehicle: saline with Tween-80) is 95 % of control; the T/C (dose: 200.0 mg/kg/injection, schedule: Q04DX002 (ip), vehicle: saline with Tween-80) is 86 % of control; the T/C (dose: 400.0 mg/kg/injection, schedule: Q04DX002 (ip), vehicle: saline with Tween-80) is 89 % of control.
On to `NNC(=O)c1ccc2ccccc2c1O`, for which the T/C is 103 % of control (dose: 25.0 mg/kg/injection, schedule: Q01DX009 (ip), vehicle: saline); 99 % of control under setting [4]; 101 % of control under setting [5]; 96 % of control under setting [6].
For `CN(C)c1ccc(C=C2C(=O)OC(C)(C)OC2=O)cc1`, the T/C is, setting by setting: under setting [1], 114 % of control; (dose: 100.0 mg/kg/injection, schedule: Q01DX005 (ip), vehicle: Klucel (hydroxypropylcellulose) (HPC)) 105 % of control; (dose: 200.0 mg/kg/injection, schedule: Q01DX005 (ip), vehicle: Klucel (hydroxypropylcellulose) (HPC)) 114 % of control.
Regarding `CCN(CC)CCCC(C)Nc1cc(OC)c2nc(C)cc(Cl)c2c1OC` (stereo not given), the T/C was 87 % of control under setting [7], 87 % of control under setting [8] and 95 % of control under setting [9].
Consider `c1ccc([Te][Te]c2ccccc2)cc1`, for which the T/C under setting [2] is 163 % of control and the T/C under setting [3] was 105 % of control.
As for `CN(CC(=O)N1CCOCC1)Cc1c(Cl)cccc1NC(=O)c1ccccc1`, the T/C is 100 % of control under setting [4], 103 % of control under setting [5] and 105 % of control under setting [6].
As for `COc1ccc(CCNC(C)Cc2ccc(OC)c(OC)c2)cc1OC` (stereo not given), the T/C by setting is: (dose: 3.13 mg/kg/injection, schedule: Q01DX009 (ip), vehicle: water) 94 % of control; (dose: 6.25 mg/kg/injection, schedule: Q01DX009 (ip), vehicle: water) 92 % of control; (dose: 12.5 mg/kg/injection, schedule: Q01DX009 (ip), vehicle: water) 96 % of control; (dose: 25.0 mg/kg/injection, schedule: Q01DX009 (ip), vehicle: water) 100 % of control; (dose: 50.0 mg/kg/injection, schedule: Q01DX009 (ip), vehicle: water) 99 % of control.
For `COC1=C2CC(C)CC(OC)C(O)C(C)/C=C(\C)C(OC(N)=O)C(OC)/C=C\C=C(/C)C(=O)NC(=C(C=NC(C)(C)C)C1=O)C2=O` (stereo not given), the T/C (dose: 60.0 mg/kg/injection, schedule: Q01DX005 (ip), vehicle: saline with Tween-80) was 124 % of control.
For the compound `COC(=O)Nc1nc2ccc(OCCO)cc2[nH]1`, the T/C is, setting by setting: (dose: 25.0 mg/kg/injection, schedule: Q01DX005 (ip), vehicle: DMSO) 104 % of control; (dose: 50.0 mg/kg/injection, schedule: Q01DX005 (ip), vehicle: DMSO) 100 % of control; (dose: 100.0 mg/kg/injection, schedule: Q01DX005 (ip), vehicle: DMSO) 104 % of control; (dose: 200.0 mg/kg/injection, schedule: Q01DX005 (ip), vehicle: DMSO) 103 % of control; (dose: 400.0 mg/kg/injection, schedule: Q01DX005 (ip), vehicle: DMSO) 101 % of control.
In the case of `NC(=S)N/N=C/c1ccncc1`, the T/C reads like this: (dose: 25.0 mg/kg/injection, schedule: Q01DX009 (ip), vehicle: saline with Tween-80) 108 % of control; under setting [7], 98 % of control; under setting [8], 101 % of control; under setting [9], 92 % of control.
In the case of `COC(=O)C(OC)(OC)C(O)C(C)C` (stereo not given), the T/C is, setting by setting: under setting [10], 104 % of control; under setting [11], 103 % of control; under setting [12], 103 % of control.
Regarding `COc1nc(=O)n(C2C=CC(=O)O2)cc1F` (stereo not given), the T/C by setting is: (dose: 20.0 mg/kg/injection, schedule: Q01DX009 (ip), vehicle: saline) 158 % of control and 173 % of control; (dose: 40.0 mg/kg/injection, schedule: Q01DX009 (ip), vehicle: saline) 174 % of control and 196 % of control; (dose: 80.0 mg/kg/injection, schedule: Q01DX009 (ip), vehicle: saline) 102 % of control.
`O/N=C/c1ccccn1`: the T/C under setting [10] is 92 % of control, the T/C under setting [11] was 101 % of control and the T/C under setting [12] was 100 % of control.
Regarding `O=C(/C=C/c1c(-c2ccccc2)[nH]c2ccccc12)c1ccccc1O`, the T/C reads like this: (dose: 7.5 mg/kg/injection, schedule: Q01DX005 (ip), vehicle: saline with Tween-80) 106 % of control; (dose: 15.0 mg/kg/injection, schedule: Q01DX005 (ip), vehicle: saline with Tween-80) 92 % of control; (dose: 30.0 mg/kg/injection, schedule: Q01DX005 (ip), vehicle: saline with Tween-80) 90 % of control; (dose: 240.0 mg/kg/injection, schedule: Q01DX005 (ip), vehicle: saline with Tween-80) 88 % of control.
On to `CCCOc1ccccc1NC(=O)CN1CCCC1`, for which the T/C runs as follows: under setting [10], 104 % of control; under setting [11], 106 % of control; under setting [12], 116 % of control.
Turning to `C1CN2CCN3CCCN4CCN(C1)C2C34` (stereo not given), the T/C is, setting by setting: (dose: 50.0 mg/kg/injection, schedule: Q01DX005 (ip), vehicle: saline) 93 % of control; (dose: 100.0 mg/kg/injection, schedule: Q01DX005 (ip), vehicle: saline) 108 % of control; (dose: 200.0 mg/kg/injection, schedule: Q01DX005 (ip), vehicle: saline) 111 % of control.
In the case of `COc1c(C)cc(C)c(CBr)c1-c1c(CBr)c(C)cc(C)c1OC`, the T/C is, setting by setting: under setting [13], 95 % of control; under setting [14], 93 % of control; under setting [15], 88 % of control.
Consider `O=C(CCc1cc2[nH]c1c(-c1ccccc1)c1nc(c(-c3ccccc3)c3ccc([nH]3)c(-c3ccccc3)c3nc(c2-c2ccccc2)C=C3)C=C1)OCCCc1cccnc1`, for which the T/C (dose: 50.0 mg/kg/injection, schedule: Q01DX001 (ip), vehicle: Klucel (hydroxypropylcellulose) (HPC)) is 100 % of control; the T/C under setting [13] is 105 % of control; the T/C under setting [14] was 100 % of control; the T/C under setting [15] is 91 % of control.
